ChEMBL document CHEMBL3804808, “Discovery of a Novel 2,6-Disubstituted Glucosamine Series of Potent and Selective Hexokinase 2 Inhibitors” (ACS Med Chem Lett, 2016)
pIC50, pKi: −log10 of the molar value.

How the values were obtained:
Hexokinase-2 [1] = biological target: T1, Hexokinase-2 (Homo sapiens, UniProt P52789); experiment: Competitive inhibition of His-tagged human HK2 (17 to 916 residues) expressed in Escherichia coli BL21(DE3) assessed as formation of G6P by continuous G6P dehydrogenase coupled assay in presence of glucose
T1 sequence (P52789 whole entry): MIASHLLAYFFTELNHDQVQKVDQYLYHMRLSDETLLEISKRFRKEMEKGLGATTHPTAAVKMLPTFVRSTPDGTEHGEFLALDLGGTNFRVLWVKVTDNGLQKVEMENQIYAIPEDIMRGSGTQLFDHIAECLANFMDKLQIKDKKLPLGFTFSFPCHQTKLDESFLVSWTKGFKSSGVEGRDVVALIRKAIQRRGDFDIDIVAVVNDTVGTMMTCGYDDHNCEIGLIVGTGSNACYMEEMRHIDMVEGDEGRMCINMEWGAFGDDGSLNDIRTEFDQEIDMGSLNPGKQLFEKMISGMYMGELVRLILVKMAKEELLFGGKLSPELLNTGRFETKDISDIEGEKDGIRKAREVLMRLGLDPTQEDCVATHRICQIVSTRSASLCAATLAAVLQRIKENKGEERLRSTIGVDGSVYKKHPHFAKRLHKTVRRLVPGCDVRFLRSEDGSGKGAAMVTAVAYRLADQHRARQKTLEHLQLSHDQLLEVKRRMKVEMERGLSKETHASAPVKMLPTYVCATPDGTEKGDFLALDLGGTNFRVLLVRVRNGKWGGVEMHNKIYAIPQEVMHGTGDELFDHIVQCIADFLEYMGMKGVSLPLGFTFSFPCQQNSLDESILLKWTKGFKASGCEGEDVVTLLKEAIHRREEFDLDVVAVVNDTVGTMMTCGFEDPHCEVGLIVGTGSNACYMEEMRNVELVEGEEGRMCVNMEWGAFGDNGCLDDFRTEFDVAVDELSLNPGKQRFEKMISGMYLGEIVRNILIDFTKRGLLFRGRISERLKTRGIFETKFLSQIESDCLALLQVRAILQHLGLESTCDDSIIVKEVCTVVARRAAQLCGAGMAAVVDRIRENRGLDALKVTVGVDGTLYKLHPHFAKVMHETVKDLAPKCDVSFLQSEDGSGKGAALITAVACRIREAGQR

Hexokinase-1 = biological target: T2, Hexokinase-1 (Homo sapiens, UniProt P19367); experiment: Inhibition of His-tagged human HK1 (11 to 917 residues) expressed in Escherichia coli BL21(DE3) using glucose as substrate after 45 mins by ADP-glo assay in presence of MgATP
T2 sequence (P19367 whole entry): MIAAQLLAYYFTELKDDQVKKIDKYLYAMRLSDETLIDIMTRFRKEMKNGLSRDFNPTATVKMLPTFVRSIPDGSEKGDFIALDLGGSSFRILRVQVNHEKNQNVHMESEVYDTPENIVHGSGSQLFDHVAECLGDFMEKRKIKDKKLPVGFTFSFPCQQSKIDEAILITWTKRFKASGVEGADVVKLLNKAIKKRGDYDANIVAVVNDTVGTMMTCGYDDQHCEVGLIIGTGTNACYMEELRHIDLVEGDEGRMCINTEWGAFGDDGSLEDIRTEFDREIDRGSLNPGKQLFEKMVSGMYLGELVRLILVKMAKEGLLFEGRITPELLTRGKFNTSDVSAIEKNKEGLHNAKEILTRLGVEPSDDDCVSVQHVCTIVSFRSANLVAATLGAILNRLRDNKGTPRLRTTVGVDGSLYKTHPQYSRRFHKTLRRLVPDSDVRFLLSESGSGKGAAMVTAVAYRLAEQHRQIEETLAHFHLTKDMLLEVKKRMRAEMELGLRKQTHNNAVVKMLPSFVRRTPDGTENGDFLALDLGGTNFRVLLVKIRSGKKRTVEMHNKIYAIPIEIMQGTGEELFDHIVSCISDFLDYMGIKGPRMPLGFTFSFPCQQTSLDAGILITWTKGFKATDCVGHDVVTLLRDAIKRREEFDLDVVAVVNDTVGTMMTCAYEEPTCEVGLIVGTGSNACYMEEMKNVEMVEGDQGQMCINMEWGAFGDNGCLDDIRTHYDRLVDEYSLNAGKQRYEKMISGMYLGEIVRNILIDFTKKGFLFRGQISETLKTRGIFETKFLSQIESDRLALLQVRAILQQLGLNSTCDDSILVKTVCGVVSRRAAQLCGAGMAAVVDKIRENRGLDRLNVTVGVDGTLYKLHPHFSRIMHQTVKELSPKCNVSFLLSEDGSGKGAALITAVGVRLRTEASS

Hexokinase-2 [2] = biological target: T1, Hexokinase-2; experiment: Inhibition of His-tagged human HK2 (17 to 916 residues) expressed in Escherichia coli BL21(DE3) using glucose as substrate after 45 mins by ADP-glo assay in presence of MgATP
Hexokinase-2 [3] = biological target: T1, Hexokinase-2; experiment: Inhibition of HK2 in human UM-UC-3 cells using 2FDG as substrate assessed as suppression of G6P production preincubated for 30 mins followed by substrate treatment for 90 mins by resazurin assay; type: cell-based, UMUC3
Hexokinase-4 = biological target: T3, Hexokinase-4 (Homo sapiens, UniProt P35557); experiment: Inhibition of HK4 (unknown origin)
T3 sequence (P35557 whole entry): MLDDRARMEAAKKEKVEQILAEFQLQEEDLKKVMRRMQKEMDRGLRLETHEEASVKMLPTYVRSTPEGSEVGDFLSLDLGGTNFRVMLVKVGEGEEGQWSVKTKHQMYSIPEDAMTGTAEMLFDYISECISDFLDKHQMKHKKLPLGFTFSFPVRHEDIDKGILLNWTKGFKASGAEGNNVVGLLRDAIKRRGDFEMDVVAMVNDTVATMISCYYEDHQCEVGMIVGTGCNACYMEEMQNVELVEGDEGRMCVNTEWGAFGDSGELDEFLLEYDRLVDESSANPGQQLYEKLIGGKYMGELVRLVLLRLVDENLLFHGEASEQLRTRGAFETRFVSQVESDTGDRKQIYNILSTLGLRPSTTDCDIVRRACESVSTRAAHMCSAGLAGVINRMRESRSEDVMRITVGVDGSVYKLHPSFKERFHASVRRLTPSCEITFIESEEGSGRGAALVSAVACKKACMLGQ

Row | pKi (Hexokinase-2 [1]) | pIC50 (Hexokinase-1) | pIC50 (Hexokinase-2 [2]) | pIC50 (Hexokinase-2 [3]) | pIC50 (Hexokinase-4) | Compound
1 | 5.54 | 5.70 | 5.20 |  |  | O=C(/C=C/c1ccc(Cl)c(Cl)c1)N[C@H]1C(O)O[C@H](CO)[C@@H](O)[C@@H]1O (stereo not given in full)
2 |  | 6.10 | 5.49 |  |  | O=C(N[C@H]1C(O)O[C@H](CO)[C@@H](O)[C@@H]1O)c1cccc(-c2ccccc2)c1 (stereo not given in full)
3 |  | 7.70 | 7.00 |  |  | O=C(N[C@H]1C(O)O[C@H](CNS(=O)(=O)c2cnccc2Cl)[C@@H](O)[C@@H]1O)c1cccc(-c2ccccc2)c1 (stereo not given in full)
4 |  | 7.60 | 7.30 |  |  | O=C(O)c1cccc(S(=O)(=O)NC[C@H]2OC(O)[C@H](NC(=O)c3cccc(-c4ccccc4)c3)[C@@H](O)[C@@H]2O)c1 (stereo not given in full)
5 |  | 7.40 | 6.10 |  |  | N#Cc1ccc(-c2cc(C(=O)N[C@H]3C(O)O[C@H](CO)[C@@H](O)[C@@H]3O)cc(C(F)(F)F)c2)cc1 (stereo not given in full)
6 |  | 4.89 | 4.80 |  |  | O=C(N[C@H]1C(O)O[C@H](CO)[C@@H](O)[C@@H]1O)c1ccc(-c2ccccc2)cc1 (stereo not given in full)
7 |  | < 4.70 | 7.30 |  |  | O=S(=O)(N[C@H]1C(O)O[C@H](CNS(=O)(=O)c2cccc(Cl)c2Cl)[C@@H](O)[C@@H]1O)c1ccc(Cl)c(Cl)c1 (stereo not given in full)
8 |  | < 3.70 | < 3.40 |  |  | COC1O[C@H](CO)[C@@H](O)[C@H](O)[C@H]1NC(=O)/C=C/c1ccc(Cl)c(Cl)c1 (stereo not given in full)
9 |  | 7.49 | 7.60 | 6.70 | 5.46 | O=C(N[C@H]1C(O)O[C@H](CNS(=O)(=O)c2cccc(Cl)c2Cl)[C@@H](O)[C@@H]1O)c1cccc(-c2ccccc2)c1 (stereo not given in full)
10 |  | 6.80 | 6.10 |  |  | O=C(N[C@H]1C(O)O[C@H](CNS(=O)(=O)c2ccccc2)[C@@H](O)[C@@H]1O)c1cccc(-c2ccccc2)c1 (stereo not given in full)
11 |  | 8.10 | 6.89 |  |  | N#Cc1ccc(S(=O)(=O)NC[C@H]2OC(O)[C@H](NC(=O)c3cccc(-c4ccccc4)c3)[C@@H](O)[C@@H]2O)cc1 (stereo not given in full)
12 |  | 5.70 | 5.70 |  |  | O=C(N[C@H]1C(O)O[C@H](CO)[C@@H](O)[C@@H]1O)c1cc([N+](=O)[O-])cc([N+](=O)[O-])c1 (stereo not given in full)
13 |  | 7.80 | 7.00 |  |  | O=C(N[C@H]1C(O)O[C@H](CNS(=O)(=O)c2ccccc2Cl)[C@@H](O)[C@@H]1O)c1cccc(-c2ccccc2)c1 (stereo not given in full)

Second part, the molecule before the results:

Row | Compound | pKi (Hexokinase-2 [1]) | pIC50 (Hexokinase-1) | pIC50 (Hexokinase-2 [2]) | pIC50 (Hexokinase-2 [3]) | pIC50 (Hexokinase-4)
14 | O=C(N[C@H]1C(O)O[C@H](CNS(=O)(=O)c2cccc(Cl)c2)[C@@H](O)[C@@H]1O)c1cccc(-c2ccccc2)c1 (stereo not given in full) |  | 6.80 | 6.49 |  | 
15 | O=S(=O)(N[C@H]1C(O)O[C@H](CNS(=O)(=O)c2cccc(Cl)c2Cl)[C@@H](O)[C@@H]1O)c1cccc(-c2ccccc2)c1 (stereo not given in full) |  | 5.30 | 7.60 | 6.33 | 
16 | O=C(N[C@H]1C(O)O[C@H](CNS(=O)(=O)c2cccc(Cl)c2Cl)[C@@H](O)[C@@H]1O)c1ccc(Cl)s1 (stereo not given in full) |  | 5.70 | 7.40 |  | 
17 | COc1cc(C(=O)N[C@H]2C(O)O[C@H](CNS(=O)(=O)c3cccc(Cl)c3Cl)[C@@H](O)[C@@H]2O)cc(-c2ccc(C#N)cc2)c1 (stereo not given in full) |  | 8.10 | 7.60 |  | 
18 | O=S(=O)(N[C@H]1C(O)O[C@H](CNS(=O)(=O)c2cccc(Cl)c2Cl)[C@@H](O)[C@@H]1O)c1ccc(Cl)s1 (stereo not given in full) |  | 4.20 | 6.89 | 6.28 | 
19 | O=C(C=C1CCC(C(F)(F)F)CC1)N[C@H]1C(O)O[C@H](CO)[C@@H](O)[C@@H]1O (stereo not given in full) |  | 3.80 | 4.80 |  | 
20 | O=C(/C=C/c1ccc(Cl)c(Cl)c1)N[C@H]1CO[C@H](CO)[C@@H](O)[C@@H]1O |  | < 3.70 | < 3.40 |  | 
21 | O=S(=O)(N[C@H]1C(O)O[C@H](CNS(=O)(=O)c2cccc(Cl)c2Cl)[C@@H](O)[C@@H]1O)c1cccc(-c2ccc(Cl)cc2)c1 (stereo not given in full) |  | 6.00 | 8.10 |  | 
22 | COC(=O)c1cc(S(=O)(=O)NC[C@H]2OC(O)[C@H](NC(=O)c3cccc(Br)c3)[C@@H](O)[C@@H]2O)oc1C (stereo not given in full) |  | 5.80 | 6.20 |  | 
23 | O=[N+]([O-])c1cccc(S(=O)(=O)N[C@H]2C(O)O[C@H](CNS(=O)(=O)c3cccc(Cl)c3Cl)[C@@H](O)[C@@H]2O)c1 (stereo not given in full) |  | 5.00 | 6.89 |  | 
24 | Cc1ccc(S(=O)(=O)NC[C@H]2OC(O)[C@H](NC(=O)/C=C/c3ccc(Cl)c(Cl)c3)[C@@H](O)[C@@H]2O)cc1 (stereo not given in full) |  | 5.70 | 5.70 |  | 
25 | Cc1oc(S(=O)(=O)NC[C@H]2OC(O)[C@H](NC(=O)c3cccc(Br)c3)[C@@H](O)[C@@H]2O)cc1C(=O)O (stereo not given in full) |  | 7.70 | 8.00 |  | 
